Test results taken from PubChem BioAssay (NCI).
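Compound exposure: 48 hours, 5 concentrations, 96-well plates. At the TGI there is no net growth.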

Assays:
Experiment in all cases: DTP human tumour cell line panel, 48 h
M14 melanoma = system: M14 melanoma
K-562 leukemia = system: K-562 leukemia
SN12C renal = system: SN12C renal
MOLT-4 leukemia = system: MOLT-4 leukemia
CAKI-1 renal = system: CAKI-1 renal
SK-OV-3 ovarian = system: SK-OV-3 ovarian
NCI-H23 lung = system: NCI-H23 lung
CCRF-CEM leukemia = system: CCRF-CEM leukemia
DLD-1 colon = system: DLD-1 colon
SNB-78 CNS = system: SNB-78 CNS
SK-MEL-28 melanoma = system: SK-MEL-28 melanoma
U251 CNS = system: U251 CNS
UACC-62 melanoma = system: UACC-62 melanoma
TK-10 renal = system: TK-10 renal
A549 NSCLC = system: A549 NSCLC
HCT-116 colon = system: HCT-116 colon
COLO 205 colon = system: COLO 205 colon
RXF 393 renal = system: RXF 393 renal
OVCAR-8 ovarian = system: OVCAR-8 ovarian
HOP-92 NSCLC = system: HOP-92 NSCLC
786-0 renal = system: 786-0 renal
OVCAR-3 ovarian = system: OVCAR-3 ovarian
UACC-257 melanoma = system: UACC-257 melanoma
SK-MEL-5 melanoma = system: SK-MEL-5 melanoma
ACHN renal = system: ACHN renal
SW-620 colon = system: SW-620 colon
SK-MEL-2 melanoma = system: SK-MEL-2 melanoma
SF-295 CNS = system: SF-295 CNS
HT29 colon = system: HT29 colon
SF-268 CNS = system: SF-268 CNS
LOX IMVI melanoma = system: LOX IMVI melanoma
M19-MEL melanoma = system: M19-MEL melanoma
SNB-19 CNS = system: SNB-19 CNS
HOP-18 NSCLC = system: HOP-18 NSCLC
HCT-15 colon = system: HCT-15 colon
LXFL 529 NSCLC = system: LXFL 529 NSCLC
KM12 colon = system: KM12 colon
SF-539 CNS = system: SF-539 CNS
KM20L2 colon = system: KM20L2 colon
IGROV1 ovarian = system: IGROV1 ovarian
UO-31 renal = system: UO-31 renal
SR leukemia = system: SR leukemia
NCI-H460 lung = system: NCI-H460 lung
OVCAR-5 ovarian = system: OVCAR-5 ovarian
EKVX NSCLC = system: EKVX NSCLC
A498 renal = system: A498 renal
NCI-H226 lung = system: NCI-H226 lung
RPMI-8226 leukemia = system: RPMI-8226 leukemia
NCI-H522 lung = system: NCI-H522 lung
HOP-62 NSCLC = system: HOP-62 NSCLC
SNB-75 CNS = system: SNB-75 CNS
HL-60(TB) leukemia = system: HL-60(TB) leukemia
DMS 114 small cell lung = system: DMS 114 small cell lung
RXF-631 renal = system: RXF-631 renal
MALME-3M melanoma = system: MALME-3M melanoma
HCC-2998 colon = system: HCC-2998 colon
DMS 273 small cell lung = system: DMS 273 small cell lung
OVCAR-4 ovarian = system: OVCAR-4 ovarian

## COc1ccc(SS(=O)(=O)c2ccc(OC)cc2)cc1
M14 melanoma
  TGI: 41.6 µM
K-562 leukemia
  TGI: 47 µM
SN12C renal
  TGI: 36.7 µM
MOLT-4 leukemia
  TGI: 47.8 µM
CAKI-1 renal
  TGI: 43.3 µM
SK-OV-3 ovarian
  TGI: 69.4 µM
NCI-H23 lung
  TGI: 49.1 µM
CCRF-CEM leukemia
  TGI: 10.2 µM
DLD-1 colon
  TGI: 52.3 µM
SNB-78 CNS
  TGI: > 100 µM
SK-MEL-28 melanoma
  TGI: 40.1 µM
U251 CNS
  TGI: 27.6 µM
UACC-62 melanoma
  TGI: 38.5 µM
TK-10 renal
  TGI: 50.2 µM
A549 NSCLC
  TGI: 69.2 µM
HCT-116 colon
  TGI: 30.3 µM
COLO 205 colon
  TGI: 33.2 µM
RXF 393 renal
  TGI: 32.3 µM
OVCAR-8 ovarian
  TGI: 31.9 µM
HOP-92 NSCLC
  TGI: 60.4 µM
786-0 renal
  TGI: 32.7 µM
OVCAR-3 ovarian
  TGI: 33.8 µM
UACC-257 melanoma
  TGI: 49.4 µM
SK-MEL-5 melanoma
  TGI: 33 µM
ACHN renal
  TGI: 33.1 µM
SW-620 colon
  TGI: 18.1 µM
SK-MEL-2 melanoma
  TGI: 87.5 µM
SF-295 CNS
  TGI: 39.3 µM
HT29 colon
  TGI: 64.1 µM
SF-268 CNS
  TGI: 32.9 µM
LOX IMVI melanoma
  TGI: 31.8 µM
M19-MEL melanoma
  TGI: 46.4 µM
SNB-19 CNS
  TGI: 65 µM
HOP-18 NSCLC
  TGI: 48.3 µM
HCT-15 colon
  TGI: > 100 µM
LXFL 529 NSCLC
  TGI: 34.4 µM
KM12 colon
  TGI: 30.7 µM
SF-539 CNS
  TGI: 34 µM
KM20L2 colon
  TGI: 38 µM
IGROV1 ovarian
  TGI: 24.4 µM
UO-31 renal
  TGI: 27.2 µM
SR leukemia
  TGI: 61.4 µM
NCI-H460 lung
  TGI: 83.9 µM
OVCAR-5 ovarian
  TGI: 76.4 µM
EKVX NSCLC
  TGI: 71.6 µM
A498 renal
  TGI: 37 µM
NCI-H226 lung
  TGI: 50.1 µM
RPMI-8226 leukemia
  TGI: 75.4 µM
NCI-H522 lung
  TGI: 29.2 µM
HOP-62 NSCLC
  TGI: 50.9 µM
SNB-75 CNS
  TGI: 45.5 µM
HL-60(TB) leukemia
  TGI: 7.81 µM
DMS 114 small cell lung
  TGI: 30.6 µM
RXF-631 renal
  TGI: > 100 µM
MALME-3M melanoma
  TGI: 80.4 µM
HCC-2998 colon
  TGI: 29.8 µM

## CC1(C)CCCC2(C)[C@@H]1CC[C@@]13CC(=O)[C@@](C)(CC[C@@H]21)C3 (some centres not stated)
M14 melanoma
  TGI: > 100 µM
K-562 leukemia
  TGI: > 100 µM
SN12C renal
  TGI: > 100 µM
MOLT-4 leukemia
  TGI: > 100 µM
CAKI-1 renal
  TGI: > 100 µM
SK-OV-3 ovarian
  TGI: > 100 µM
NCI-H23 lung
  TGI: > 100 µM
CCRF-CEM leukemia
  TGI: > 100 µM
DLD-1 colon
  TGI: > 100 µM
SNB-78 CNS
  TGI: > 100 µM
DMS 273 small cell lung
  TGI: > 100 µM
SK-MEL-28 melanoma
  TGI: > 100 µM
U251 CNS
  TGI: > 100 µM
UACC-62 melanoma
  TGI: > 100 µM
TK-10 renal
  TGI: > 100 µM
A549 NSCLC
  TGI: > 100 µM
HCT-116 colon
  TGI: > 100 µM
COLO 205 colon
  TGI: > 100 µM
RXF 393 renal
  TGI: 62.8 µM
OVCAR-8 ovarian
  TGI: > 100 µM
HOP-92 NSCLC
  TGI: > 100 µM
OVCAR-4 ovarian
  TGI: > 100 µM
786-0 renal
  TGI: > 100 µM
OVCAR-3 ovarian
  TGI: > 100 µM
UACC-257 melanoma
  TGI: 97.3 µM
SK-MEL-5 melanoma
  TGI: > 100 µM
ACHN renal
  TGI: > 100 µM
SW-620 colon
  TGI: > 100 µM
SF-295 CNS
  TGI: > 100 µM
HT29 colon
  TGI: 76.3 µM
SF-268 CNS
  TGI: > 100 µM
LOX IMVI melanoma
  TGI: > 100 µM
M19-MEL melanoma
  TGI: 89.6 µM
SNB-19 CNS
  TGI: > 100 µM
HCT-15 colon
  TGI: > 100 µM
LXFL 529 NSCLC
  TGI: > 100 µM
KM12 colon
  TGI: > 100 µM
SF-539 CNS
  TGI: > 100 µM
KM20L2 colon
  TGI: > 100 µM
IGROV1 ovarian
  TGI: > 100 µM
UO-31 renal
  TGI: > 100 µM
SR leukemia
  TGI: > 100 µM
NCI-H460 lung
  TGI: > 100 µM
OVCAR-5 ovarian
  TGI: > 100 µM
NCI-H226 lung
  TGI: > 100 µM
RPMI-8226 leukemia
  TGI: > 100 µM
NCI-H522 lung
  TGI: 82.5 µM
HOP-62 NSCLC
  TGI: > 100 µM
SNB-75 CNS
  TGI: > 100 µM
HL-60(TB) leukemia
  TGI: > 100 µM
DMS 114 small cell lung
  TGI: > 100 µM
RXF-631 renal
  TGI: > 100 µM
MALME-3M melanoma
  TGI: > 100 µM
HCC-2998 colon
  TGI: > 100 µM

## COc1cc([C@@H]2c3cc4c(cc3[C@@H](NC(=O)c3cccc(C#N)c3)C3COC(=O)[C@@H]32)OCO4)cc(OC)c1O (some centres not stated)
M14 melanoma
  TGI: > 100 µM
K-562 leukemia
  TGI: > 100 µM
SN12C renal
  TGI: 1.81 µM
MOLT-4 leukemia
  TGI: 33 µM
CAKI-1 renal
  TGI: 16.3 µM
NCI-H23 lung
  TGI: 0.811 µM
CCRF-CEM leukemia
  TGI: > 100 µM
DLD-1 colon
  TGI: 16.8 µM
SNB-78 CNS
  TGI: > 100 µM
DMS 273 small cell lung
  TGI: 13.8 µM
SK-MEL-28 melanoma
  TGI: > 100 µM
U251 CNS
  TGI: 1.81 µM
UACC-62 melanoma
  TGI: 2.95 µM
TK-10 renal
  TGI: 7.86 µM
A549 NSCLC
  TGI: 2.51 µM
HCT-116 colon
  TGI: 12.7 µM
COLO 205 colon
  TGI: > 100 µM
RXF 393 renal
  TGI: 45.5 µM
OVCAR-8 ovarian
  TGI: 14.6 µM
HOP-92 NSCLC
  TGI: 9.89 µM
OVCAR-4 ovarian
  TGI: > 100 µM
786-0 renal
  TGI: > 100 µM
OVCAR-3 ovarian
  TGI: 8.74 µM
UACC-257 melanoma
  TGI: > 100 µM
SK-MEL-5 melanoma
  TGI: 13.6 µM
ACHN renal
  TGI: 1.98 µM
SW-620 colon
  TGI: 17.8 µM
SK-MEL-2 melanoma
  TGI: 8.83 µM
HT29 colon
  TGI: 11.5 µM
SF-268 CNS
  TGI: > 100 µM
LOX IMVI melanoma
  TGI: 10.5 µM
SNB-19 CNS
  TGI: 8.62 µM
HOP-18 NSCLC
  TGI: > 100 µM
HCT-15 colon
  TGI: 24.5 µM
LXFL 529 NSCLC
  TGI: > 100 µM
KM12 colon
  TGI: 5.21 µM
SF-539 CNS
  TGI: 1.56 µM
KM20L2 colon
  TGI: 7.53 µM
IGROV1 ovarian
  TGI: 6.54 µM
UO-31 renal
  TGI: 19.2 µM
NCI-H460 lung
  TGI: 2.53 µM
OVCAR-5 ovarian
  TGI: 25.5 µM
EKVX NSCLC
  TGI: 7.49 µM
A498 renal
  TGI: 4.98 µM
NCI-H226 lung
  TGI: 0.67 µM
RPMI-8226 leukemia
  TGI: 29.4 µM
NCI-H522 lung
  TGI: 3.16 µM
SNB-75 CNS
  TGI: 4.85 µM
HL-60(TB) leukemia
  TGI: 12.3 µM
RXF-631 renal
  TGI: 14.6 µM
MALME-3M melanoma
  TGI: 5.18 µM
HCC-2998 colon
  TGI: 6.34 µM
